Test results published in article PMC11678869, “Functional Role of Odorant-Binding Proteins in Response to Sex Pheromone Component Z8-14:Ac in Grapholita molesta (Busck)” (Insects, 2024).

Legend:
[1] = test system: OFM males; test: Field trapping with delta traps, peach orchard; assay type: in vivo, Grapholita molesta; conditions: for Inhibition Rate of OFM Males: vs 100:4:0
Description: To determine the inhibitory effects on OFM male adults and the impact on the trapping effects of PFM male adults, varying amounts of Z8-14:Ac (0, 5, 10, 25, 50, 75, 100, 125, 150 μg) or Z10-14:Ac (0, 25, 50, 100, 150, 250, 350, 450, and 550 μg) were added to rubber septa loaded with a constant dosage of the main pheromone (500 μg of Z8-12:Ac and 20 μg of E8-12:Ac) of the PFM. Trapping experiments of Z8-14:Ac were carried out in peach and pear orchards in Yan’an and Xinjiang (China), respectively. Trapping tests of Z10-14:Ac were performed in pear orchards in Xinjiang (China). Each orchard had nine plots, with three plots in one field. Each plot consisted of a linear arrangement of traps loaded with a constant dosage of the main pheromones and different percentages of the secondary pheromone Z8-14:Ac or Z10-14:Ac of the PFM. Plots in the same field were placed 30 m apart, and fields were ≥1 km apart. The traps were hung 1.4 m from the ground on a suspension bracket between two rows of peach or pear trees from 10 June to 25 July 2021 in Xinjiang and from 15 June to 30 July 2021 in Yan’an. The positions of the traps within the plot were randomly arranged. Every 5 days, counts were taken, and the traps were rotated to the adjacent position to avoid any potential position effects. The septa loaded with sex pheromone components were replaced with new ones after every 15 days of suspension. The data were analyzed using a one-way ANOVA, and the differences in the average trapping of OFM and PFM males using sex attractants containing different amounts of Z8-14:Ac or Z10-14:Ac were further analyzed using Tukey’s HSD test, both of which were performed using SPSS 23.0.

[2] = biological target: GmolPBP2 mutant F12A (Grapholita molesta, UniProt A0A059VC28, F37A); test: Fluorescence competitive binding assay, GmolPBP2 mutant
Sequence of GmolPBP2 mutant F12A (A0A059VC28 entry or part of it F37A): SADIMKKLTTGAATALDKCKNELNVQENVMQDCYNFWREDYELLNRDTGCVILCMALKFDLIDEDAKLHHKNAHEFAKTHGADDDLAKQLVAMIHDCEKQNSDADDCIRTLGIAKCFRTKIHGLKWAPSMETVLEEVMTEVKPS
Description: (§1) The binding affinities of three rGmolPBPs and two rGmolGOBPs for Z8-14:Ac were determined using an F-2700 fluorescence spectrophotometer (Hitachi, Tokyo, Japan). First, we measured the dissociation constants (Kd) of the rGmolPBPs (or rGmolGOBPs) binding to 1−NPN. Each protein was diluted to 2 μM with 20 mM Tris-HCl buffer (pH 7.4); then, 2 mL of the protein solution was transferred to a quartz cuvette and titrated with 1 mM 1−NPN to a final concentration of 1–18 μM. As the doses of 1−NPN were increased, the increasing amplitude of the fluorescence intensity decreased, and finally, the binding of the protein to 1−NPN reached saturation. The Kd values were calculated using the nonlinear regression method and the Scatchard equation. Second, we measured the inhibitory constant (Ki) of Z8-14:Ac’s competitive binding with each rGmolPBP (or rGmolGOBP) from the protein/1−NPN complex. The initial fluorescence intensity values were measured after a 2 min reaction in 2 mL solution of 20 mM Tris-HCl (pH 7.4) containing 2 µM rGmolPBP (or rGmolGOBP) protein and 2 µM 1−NPN. Then, the solution was titrated with aliquots of 1 mM Z8-14:Ac to obtain final concentrations in the range of 1–14 µM, and the fluorescence intensity value of each reaction was recorded. The Ki values were calculated using the following equation: Ki = [IC50]/(1 + [1 − NPN]/Kd) where IC50 is the concentration of Z8-14:Ac when half of the initial fluorescence intensity value of the rGmolPBP (or GmolGOBP)/1−NPN complex is replaced, [1 − NPN] represents the concentration of free 1−NPN, and Kd is the dissociation constant of the rGmolPBP (or GmolGOBP)/1−NPN complex.
(§2) Five amino acids—Phe12, Leu68, Ile94, Arg109, and Ile113—were identified as having lower binding free energies for GmolPBP2 interaction with Z8-14:Ac. To assess their role in binding, these residues were individually mutated to alanine using site-directed mutagenesis. Primers for mutagenesis were designed following the protocols recommended by the Fast Mutagenesis System (TransGen Biotech, Beijing, China) (Table S1). These mutations were introduced into the pET-28a(+)–GmolPBP2 plasmid using a Fast Mutagenesis System kit ([…]) and site-directed mutagenesis primers generating the mutants F12A, L68A, I94A, R109A, and I113A, respectively. Each plasmid was verified by DNA sequencing to confirm the presence of the desired mutation. Expression and purification of the mutated proteins followed the same protocols used for the wild-type GmolPBP2. The binding affinities of the five mutants for Z8-14:Ac were determined via fluorescence competitive binding assays. An increase in Ki values for the mutants relative to the wild-type GmolPBP2 would indicate that the corresponding amino acid residues may be crucial for binding to Z8-14:Ac.

[3] = biological target: GmolPBP2 mutant L68A (Grapholita molesta, UniProt A0A059VC28, L93A); test: as above
Sequence of GmolPBP2 mutant L68A (A0A059VC28 entry or part of it L93A): as the sequence (A0A059VC28 entry or part of it F37A) above, with A12F, L68A counted along it
Description: as §1, §2

[4] = biological target: GmolPBP2 mutant R109A (Grapholita molesta, UniProt A0A059VC28, R134A); test: as above
Sequence of GmolPBP2 mutant R109A (A0A059VC28 entry or part of it R134A): as the sequence (A0A059VC28 entry or part of it F37A) above, with A12F, R109A counted along it
Description: as §1, §2

[5] = biological target: GmolPBP2 mutant I94A (Grapholita molesta, UniProt A0A059VC28, I119A); test: as above
Sequence of GmolPBP2 mutant I94A (A0A059VC28 entry or part of it I119A): as the sequence (A0A059VC28 entry or part of it F37A) above, with A12F, I94A counted along it
Description: as §1, §2

[6] = biological target: GmolPBP2 mutant I113A (Grapholita molesta, UniProt A0A059VC28, I138A); test: as above
Sequence of GmolPBP2 mutant I113A (A0A059VC28 entry or part of it I138A): as the sequence (A0A059VC28 entry or part of it F37A) above, with A12F, I113A counted along it
Description: as §1, §2

[7] = peach orchard, Z8-12:Ac/E8-12:Ac/Z8-14:Ac 500/20/5 μg (100:4:1)
[8] = peach orchard, Z8-12:Ac/E8-12:Ac/Z8-14:Ac 500/20/10 μg (100:4:2)
[9] = peach orchard, Z8-12:Ac/E8-12:Ac/Z8-14:Ac 500/20/25 μg (100:4:5)
[10] = peach orchard, Z8-12:Ac/E8-12:Ac/Z8-14:Ac 500/20/50 μg (100:4:10)
[11] = peach orchard, Z8-12:Ac/E8-12:Ac/Z8-14:Ac 500/20/75 μg (100:4:15)
[12] = peach orchard, Z8-12:Ac/E8-12:Ac/Z8-14:Ac 500/20/100 μg (100:4:20)
[13] = peach orchard, Z8-12:Ac/E8-12:Ac/Z8-14:Ac 500/20/125 μg (100:4:25)
[14] = peach orchard, Z8-12:Ac/E8-12:Ac/Z8-14:Ac 500/20/150 μg (100:4:30)

For `CCCCC/C=C\CCCCCCCOC(C)=O` [Z8-14:Ac, (Z)-8-tetradecenyl acetate], the “Total OFM Males/Trap” value [1, 7] was 46.08±3.25 b Males/Trap, the “Inhibition Rate of OFM Males” value [1, 7] was 58.81% and the “Total OFM Males/Trap” value [1, 8] was 40.89±2.35 b Males/Trap. For the same molecule, the “Inhibition Rate of OFM Males” value [1, 8] was 63.45%, the “Total OFM Males/Trap” value [1, 9] was 14.82±1.47 c Males/Trap and the “Inhibition Rate of OFM Males” value [1, 9] was 86.75%. For the same molecule, the “Total OFM Males/Trap” value [1, 10] was 9.04±1.08 c Males/Trap, the “Inhibition Rate of OFM Males” value [1, 10] was 91.92% and the “Total OFM Males/Trap” value [1, 11] was 9.55±1.09 c Males/Trap. The “Inhibition Rate of OFM Males” value [1, 11] was 91.46%, the “Total OFM Males/Trap” value [1, 12] was 9.67±1.52 c Males/Trap and the “Inhibition Rate of OFM Males” value [1, 12] was 91.36%. The “Total OFM Males/Trap” value [1, 13] was 6.86±0.24 c Males/Trap, the “Inhibition Rate of OFM Males” value [1, 13] was 93.87% and the “Total OFM Males/Trap” value [1, 14] was 7.96±1.19 c Males/Trap. The “Inhibition Rate of OFM Males” value [1, 14] was 92.88%, the “reduction of the number of OFM males caught” value ([1]; peach orchard, adding 5–30% of Z8-14:Ac to Z8-12:Ac and E8-12:Ac) was “more than 86%” and the “reduction of the capture of OFM males” value ([1]; peach orchards, adding 1–2% of Z8-14:Ac to Z8-12:Ac and E8-12:Ac (100:4)) was 58.81–63.45%. The IC50 [2] was > 14000 nM, the Ki [2] was > 14000 nM and the “binding affinity relative to wild-type GmolPBP2” value ([2]; mutant F12A) was “lost its affinity”. For the same molecule, the IC50 [3] was 1130 ± 26 nM, the Ki [3] was 589 ± 7 nM and the “binding affinity relative to wild-type GmolPBP2” value ([3]; mutant L68A) was “binding affinities comparable to the wild-type”. For the same molecule, the IC50 [4] was 1260 ± 29 nM, the Ki [4] was 655 ± 15 nM and the “binding affinity relative to wild-type GmolPBP2” value ([4]; mutant R109A) was “did not significantly affect the binding affinity”. For the same molecule, the IC50 [5] was 1082 ± 8 nM, the Ki [5] was 564 ± 4 nM and the “binding affinity relative to wild-type GmolPBP2” value ([5]; mutant I94A) was “binding affinities comparable to the wild-type”. The IC50 [6] was 980 ± 38 nM, the Ki [6] was 520 ± 20 nM and the “binding affinity relative to wild-type GmolPBP2” value ([6]; mutant I113A) was “binding affinities comparable to the wild-type”.
